Laboratory results from the NIST ThermoML archive (doi:10.1021/je100381g).
Numbers after ± are expanded uncertainties.

Conditions: Fluid (supercritical or subcritical phases)

`N#N` [nitrogen] showed a mass density (265 K, 967 kPa) of 12.355 ± 0.001 kg/m3, a mass density (265 K, 1937 kPa) of 24.865 ± 0.002 kg/m3 and a mass density (265 K, 3929 kPa) of 50.84 ± 0.002 kg/m3. It also gave a mass density (265 K, 5996 kPa) of 77.972 ± 0.003 kg/m3, a mass density (265 K, 7985 kPa) of 104.063 ± 0.004 kg/m3 and a mass density (265 K, 9835 kPa) of 128.039 ± 0.004 kg/m3. The mass density (265 K, 15014 kPa) was 192.346 ± 0.006 kg/m3, the mass density (265 K, 20022 kPa) was 248.359 ± 0.008 kg/m3 and the mass density (265 K, 25019 kPa) was 297.183 ± 0.009 kg/m3. It also gave a mass density (265 K, 30006 kPa) of 339.165 ± 0.011 kg/m3, a mass density (265 K, 35119 kPa) of 376.198 ± 0.012 kg/m3 and a mass density (265 K, 50041 kPa) of 459.104 ± 0.014 kg/m3. It also gave a mass density (265 K, 74887 kPa) of 549.76 ± 0.017 kg/m3, a mass density (265 K, 100559 kPa) of 613.291 ± 0.019 kg/m3 and a mass density (293 K, 965 kPa) of 11.119 ± 0.001 kg/m3. The mass density (293 K, 1933 kPa) was 22.306 ± 0.002 kg/m3, the mass density (293 K, 3923 kPa) was 45.361 ± 0.002 kg/m3 and the mass density (293 K, 5988 kPa) was 69.244 ± 0.003 kg/m3. For the same compound, the mass density (293 K, 7971 kPa) was 91.982 ± 0.003 kg/m3, the mass density (293 K, 9822 kPa) was 112.91 ± 0.004 kg/m3 and the mass density (293 K, 14872 kPa) was 167.663 ± 0.006 kg/m3. The mass density (293 K, 19976 kPa) was 218.428 ± 0.007 kg/m3, the mass density (293 K, 24948 kPa) was 262.722 ± 0.008 kg/m3 and the mass density (293 K, 29965 kPa) was 302.337 ± 0.01 kg/m3. The mass density (293 K, 34993 kPa) was 337.389 ± 0.011 kg/m3, the mass density (293 K, 39916 kPa) was 367.801 ± 0.011 kg/m3 and the mass density (293 K, 50130 kPa) was 421 ± 0.013 kg/m3. For the same compound, the mass density (293 K, 74957 kPa) was 513.932 ± 0.016 kg/m3, the mass density (293 K, 99903 kPa) was 578.472 ± 0.018 kg/m3 and the mass density (293 K, 125585 kPa) was 628.863 ± 0.019 kg/m3. For the same compound, the mass density (293 K, 150976 kPa) was 668.88 ± 0.02 kg/m3, the mass density (298.15 K, 10005 kPa) was 112.564 ± 0.004 kg/m3 and the mass density (298.15 K, 30026 kPa) was 296.94 ± 0.009 kg/m3. The mass density (298.15 K, 49844 kPa) was 413.221 ± 0.013 kg/m3, the mass density (298.15 K, 74988 kPa) was 507.852 ± 0.016 kg/m3 and the mass density (298.15 K, 100175 kPa) was 573.318 ± 0.018 kg/m3. For the same compound, the mass density (298.15 K, 124825 kPa) was 622.069 ± 0.019 kg/m3, the mass density (298.15 K, 151239 kPa) was 664.101 ± 0.02 kg/m3 and the mass density (350 K, 2974 kPa) was 28.486 ± 0.002 kg/m3. For the same compound, the mass density (350 K, 4917 kPa) was 46.878 ± 0.002 kg/m3, the mass density (350 K, 5971 kPa) was 56.772 ± 0.002 kg/m3 and the mass density (350 K, 7481 kPa) was 70.762 ± 0.003 kg/m3. For the same compound, the mass density (350 K, 9976 kPa) was 93.531 ± 0.003 kg/m3, the mass density (350 K, 13786 kPa) was 127.029 ± 0.004 kg/m3 and the mass density (350 K, 17230 kPa) was 155.891 ± 0.005 kg/m3. For the same compound, the mass density (350 K, 20677 kPa) was 183.287 ± 0.006 kg/m3, the mass density (350 K, 24132 kPa) was 209.197 ± 0.007 kg/m3 and the mass density (350 K, 27582 kPa) was 233.51 ± 0.008 kg/m3. It also gave a mass density (350 K, 29848 kPa) of 248.687 ± 0.008 kg/m3, a mass density (350 K, 34691 kPa) of 279.018 ± 0.009 kg/m3 and a mass density (350 K, 49978 kPa) of 358.872 ± 0.011 kg/m3. It also gave a mass density (350 K, 74999 kPa) of 452.98 ± 0.014 kg/m3, a mass density (350 K, 99994 kPa) of 520.331 ± 0.016 kg/m3 and a mass density (350 K, 124395 kPa) of 571.157 ± 0.018 kg/m3. For the same compound, the mass density (350 K, 150364 kPa) was 614.997 ± 0.019 kg/m3, the mass density (400 K, 1004 kPa) was 8.432 ± 0.001 kg/m3 and the mass density (400 K, 1999 kPa) was 16.747 ± 0.002 kg/m3. For the same compound, the mass density (400 K, 2999 kPa) was 25.04 ± 0.002 kg/m3, the mass density (400 K, 4000 kPa) was 33.281 ± 0.002 kg/m3 and the mass density (400 K, 5001 kPa) was 41.463 ± 0.002 kg/m3. For the same compound, the mass density (400 K, 7000 kPa) was 57.573 ± 0.002 kg/m3, the mass density (400 K, 8004 kPa) was 65.564 ± 0.003 kg/m3 and the mass density (400 K, 10000 kPa) was 81.202 ± 0.003 kg/m3. It also gave a mass density (400 K, 14997 kPa) of 118.841 ± 0.004 kg/m3, a mass density (400 K, 19991 kPa) of 154.143 ± 0.005 kg/m3 and a mass density (400 K, 24998 kPa) of 187.116 ± 0.006 kg/m3. For the same compound, the mass density (400 K, 29991 kPa) was 217.621 ± 0.007 kg/m3, the mass density (400 K, 35015 kPa) was 246.029 ± 0.008 kg/m3 and the mass density (400 K, 40004 kPa) was 272.126 ± 0.009 kg/m3. It also gave a mass density (400 K, 49964 kPa) of 318.659 ± 0.01 kg/m3, a mass density (400 K, 59948 kPa) of 358.969 ± 0.011 kg/m3 and a mass density (400 K, 69931 kPa) of 394.143 ± 0.012 kg/m3. It also gave a mass density (400 K, 79958 kPa) of 425.322 ± 0.013 kg/m3, a mass density (400 K, 89963 kPa) of 453.061 ± 0.014 kg/m3 and a mass density (400 K, 99951 kPa) of 477.982 ± 0.015 kg/m3. It also gave a mass density (400 K, 110031 kPa) of 500.804 ± 0.015 kg/m3 and a mass density (400 K, 120573 kPa) of 522.585 ± 0.016 kg/m3.
